Measurements published in patent US20250109388A1, “METHOD FOR ISOLATING AND CONCENTRATING EXTRACELLULAR VESICLE GROUP DERIVED FROM CANCER CELL, ANALYSIS METHOD, DRUG SELECTION METHOD, KIT, AND ANTI-CANCER AGENT” (THE UNIVERSITY OF TOKYO, priority 2022, published 2025).

What was measured:
human adipocytes [1] = test: Glycerin release (lipolysis) from human adipocytes treated with EVs; type: cell-based; settings: for Released glycerin level from adipocytes treated with Panc-1 EVs in presence of inhibitor: 10 μM H89, 0.5 μM orlistat, Cay10499
Procedure: (§1) Data are in terms of mean±SD (n=3). **P=0.0025. […] Data are in terms of mean±SD (n=3). […] P=0.65.
FIG. 15 This figure is a graph of glycerin release from adipocytes treated for 24 hours with EVs (1.5 μg) derived from Panc-1 cells, in the presence or absence of an inhibitor of endocytosis. The dosage of the inhibitor is as described in FIG. 14. Data are in terms of mean±SD (n=3). P=0.40 (CPZ), *P=0.027 (Nocodazole), *P=0.012 (CytD). **P=0.0065 (Nystatin), and **P=0.0074 (4° C.); comparison with cells treated with EV alone (control). Statistical analyses were carried out using Welch's t-test. […]
EVs having a mode diameter of 100 to 150 nm were isolated from various sources, except for EVs of about 240 nm derived from Capan-2 cells. […] The expression of exosome markers such as TSG101 and CD63 in EVs was confirmed, whereby it was confirmed that EV isolation was appropriate (see FIG. 1). To investigate the effect of EV, mature human adipocytes were induced from human adipose-derived mesenchymal stem cells (hAD-MSCs) and subjected to an EV treatment (see FIGS. 2 to 4). […] Miapapaca-2 cells, and BxPC-3 cells, but it was not observed in adipocytes treated with EVs derived from Capan-2 cells (see FIG. 5).

human adipocytes [2] = test: EV internalization into human adipocytes by β-actin-HiBiT luciferase activity; type: cell-based; settings: Panc-1 EVs, 1 hour; 20 IM CPZ, 10 μM nocodazole, 20 μM CytD, 2.5 μg/mL nystatin
Procedure: The luciferase level is a luciferase level 5 of adipocytes treated for 1 hour with EV ([…]) in the presence or absence of a treatment with an endocytosis inhibitor (20 IM chlorpromazine (CPZ), 10 μM nocodazole, 20 μM cytochalasin D (CytD), or 2.5 μg/mL nystatin, or incubation at 4° C.), which is a value indicated in terms of comparison with a negative control (PBS). Data are in terms of mean±SD (n=3). P=0.74 (CPZ), *P=0.029 (nocodazole), *P=0.032 (CytD), **P=0.0078 (nystatin), and **P=0.0074 (4° C.); comparison with cells treated with EV alone (control).
Wild type: EVs derived from Panc-1 cells (not expressing HiBiT) as a negative control, EV-H and EV-L: EVs derived from Panc-1-ACTB-HiBiT cells cultured with high glucose and low glucose, respectively. […] P=0.61 (EV-H versus EV-L). […] P=0.72. […] The relative luciferase level of adipocytes treated for 1 hour with 10^9 particles of EVs (EV-H and EV-L) derived from Panc-1-ACTB-HiBiT cells was compared with the negative control (PBS). Data are in terms of mean±SD (n=3). **P=0.0011.
Wild type; Panc-1 cells (not expressing HiBiT) as a negative control, EV and EV-NP40; EVs derived from Panc-1-ACTB-HiBiT cells. 10^9 particles per sample were used. Data are in terms of mean±SD (n=3). **P=0.0017 (EV), **P<[…] (EV-NP40), and **P=0.0026 (EV versus EV-NP40). […] The luciferase level of the lysate of adipocytes treated for 1 hour with EVs (10^9 particles) derived from Panc-1-ACTB-HiBiT cells or EV-NP40 was compared with the negative control (PBS), and the results are shown. Data are in terms of mean±SD (n=3). *P=0.045. Statistical analyses were carried out using Welch's t-test.
β-actin is contained as a pan-EV marker in most EVs derived from human serum and human cell lines. To monitor the EV endocytosis level, a reporter cell (Panc-1-ACTB-HiBiT cell) was established by knocking in the HiBiT peptide sequence at the 3′ terminal of the ACTB locus of Panc-1 cell (see FIGS. 11 and 12). A high luciferase activity was detected in a lysate of cells and in EVs derived from these cells, and thus it was confirmed that the β-actin-HiBiT protein is present in the EVs (see FIGS. 13(A) and 13(B).
The luciferase level of the adipocyte lysate was upregualted 1 hour after the addition of EV and was similar to a level in a case where chlorpromazine, a clathrin-mediated endocytosis inhibitor, was used. […] (see FIG. 14).

adipocytes = test: Isoproterenol-induced glycerin release from adipocytes; type: cell-based, human
Source text: as §1
Further, the dependence of the lipolysis induced by EV, under newly synthesized cAMP, was investigated. In general, a β-stimulant such as isoproterenol activates G proteins, and it subsequently activates adenylyl cyclase, which leads to the synthesis of cAMP.

[3] = 30 μM SQ22536, 24-hour treatment

| Structure (SMILES) | Released glycerin level from adipocytes treated with Panc-1 EVs in presence of inhibitor (human adipocytes [1]) | Luciferase level of adipocyte lysate (EV internalization) with endocytosis inhibitor, vs EV alone (human adipocytes [2]) | also measured |
| --- | --- | --- | --- |
| O=S(=O)(NCCNC/C=C/c1ccc(Br)cc1)c1cccc2cnccc12 [H89] | significantly reduced |  |  |
| CN(C)CCCN1c2ccccc2Sc2ccc(Cl)cc21 [chlorpromazine] |  | similar |  |
| CCCCCCCCCCC[C@@H](C[C@@H]1OC(=O)[C@H]1CCCCCC)OC(=O)[C@H](CC(C)C)NC=O [Orlistat] | significantly reduced |  |  |
| CC(C)NCC(O)c1ccc(O)c(O)c1 (stereo not shown) [isoproterenol] |  |  | Lipolysis in adipocytes (glycerin release) (adipocytes; 10 μM isoproterenol): induces lipolysis |
| C[C@@H]1[C@H](O)[C@@H](C)/C=C/C=C/CC/C=C/C=C/C=C/C=C/C(O[C@H]2O[C@H](C)[C@@H](O)[C@H](N)[C@@H]2O)CC2O[C@](O)(CC(O)C(O)CCC(O)CC(O)CC(O)CC(=O)O[C@H]1C)CC(O)C2C(=O)O (stereo partly shown) [nystatin] |  | significantly lower |  |
| Nc1ncnc2c1ncn2C1CCCO1 (stereo not shown) [SQ22536] |  |  | Inhibition of lipolysis induced by EVs derived from Panc-1 (human adipocytes [1]; [3]): did not inhibit; Inhibition of isoproterenol-induced lipolysis (adipocytes; [3]): significantly inhibited |
| COc1nn(-c2ccc(NC(=O)OCc3ccccc3)c(C)c2)c(=O)o1 [Cay10499] | significantly reduced |  |  |
| COC(=O)Nc1nc2ccc(C(=O)c3cccs3)cc2[nH]1 [nocodazole] |  | significantly lower |  |
| C=C1[C@@H](C)[C@H]2[C@H](Cc3ccccc3)NC(=O)[C@]23[C@H](OC(C)=O)/C=C/[C@@](C)(O)C(=O)[C@@H](C)C/C=C/[C@H]3[C@@H]1O [cytochalasin D] |  | significantly lower |  |
